The results in this text go back to patent US6440967B1, “Combination of a GABAA alpha 5 inverse agonist and COX-2 inhibitor, NSAID, estrogen or vitamin E” (Merck & Co., Inc., priority 1998, dated 2002).

Turning to `Cc1cc(-c2nnc3c4ccccc4c(OCc4cccc(Br)n4)nn23)no1` [Reference Example 2, 6-(6-Bromopyridin-2-yl)methyloxy-3-(5-methylisoxazol-3-yl)-1,2,4-triazolo[3,4-a]phthalazine], the melting point was 247.5 to 249 °C.
